According to ChEMBL document CHEMBL2150981, “Discovery and optimization of benzotriazine di-N-oxides targeting replicating and nonreplicating Mycobacterium tuberculosis” (J Med Chem, 2012):
≈ marks a conversion by molar mass, not a printed value.

How the values were obtained:
[1] = system: Mycobacterium tuberculosis; test: Antitubercular activity against Mycobacterium tuberculosis H37Rv isolate SRI after 5 days by resazurin-based microplate assay; type: functional; conditions: 120 h
[2] = system: Mycobacterium tuberculosis; test: Antitubercular activity against Mycobacterium tuberculosis H37Rv isolate ITR after 7 days by luminescence spectrometry; type: functional; conditions: 168 h
[3] = system: Mycobacterium tuberculosis; test: Antitubercular activity against Mycobacterium tuberculosis H37Rv incubated for 10 days in anaerobic condition followed by 48 hrs incubation in aerobic condition by LORA assay; type: functional
Vero = test: Cytotoxicity against african green monkey Vero cells after 72 hrs by CellTiterGlo assay; conditions: chlorocebus sabaeus, vero, 72 h
[4] = Selectivity index, ratio of CC50 for Vero cells to MIC90 for Mycobacterium tuberculosis H37Rv isolate SRI; type: functional

SMILES	MIC90 [1]	MIC90 [2]	MIC90 [3]	CC50 (Vero)	Selectivity Index [4]
[O-][n+]1nc(NC2CC2)[n+]([O-])c2ccc(F)cc21	0.31 µg/mL (≈ 1.31 µM)	0.93 µg/mL (≈ 3.94 µM)	3.5 µg/mL (≈ 14.8 µM)	1.3 µg/mL (≈ 5.5 µM)	2.2
CCN(CC)c1n[n+]([O-])c2ccccc2[n+]1[O-]	0.31 µg/mL (≈ 1.32 µM)	0.46 µg/mL (≈ 1.96 µM)	1.3 µg/mL (≈ 5.55 µM)	12 µg/mL (≈ 51.2 µM)	40
[O-][n+]1nc(NC2CCCCCC2)[n+]([O-])c2ccccc21	2.5 µg/mL (≈ 9.11 µM)	1.6 µg/mL (≈ 5.83 µM)	0.5 µg/mL (≈ 1.82 µM)	7.9 µg/mL (≈ 28.8 µM)	3.2
CCNc1n[n+]([O-])c2cc(OC)ccc2[n+]1[O-]	2.5 µg/mL (≈ 10.6 µM)	15 µg/mL (≈ 63.5 µM)	16 µg/mL (≈ 67.7 µM)	–	6.3
C[C@@H](Nc1n[n+]([O-])c2ccccc2[n+]1[O-])C1CCCCC1	1.2 µg/mL (≈ 4.16 µM)	0.92 µg/mL (≈ 3.19 µM)	0.36 µg/mL (≈ 1.25 µM)	8.9 µg/mL (≈ 30.9 µM)	7.1
[O-][n+]1nc(N[C@@H]2C[C@H]3CC[C@@H]2C3)[n+]([O-])c2ccc(Cl)cc21	0.15 µg/mL (≈ 0.489 µM)	0.22 µg/mL (≈ 0.717 µM)	0.23 µg/mL (≈ 0.75 µM)	1.1 µg/mL (≈ 3.59 µM)	7.3
[O-][n+]1nc(N[C@@H]2C[C@H]3CC[C@@H]2C3)[n+]([O-])c2ccc(F)cc21	0.31 µg/mL (≈ 1.07 µM)	< 0.12 µg/mL	0.21 µg/mL (≈ 0.723 µM)	< 2.5 µg/mL	<4
COCCNC(=O)c1ccc2c(c1)[n+]([O-])c(O)c(C#N)[n+]2[O-]	> 20 µg/mL	–	> 32 µg/mL	> 16 µg/mL	–
CCNc1n[n+]([O-])c2cc(F)ccc2[n+]1[O-]	0.62 µg/mL (≈ 2.77 µM)	0.35 µg/mL (≈ 1.56 µM)	0.75 µg/mL (≈ 3.35 µM)	4.6 µg/mL (≈ 20.5 µM)	7.3
CCNc1n[n+]([O-])c2cc(Cl)ccc2[n+]1[O-]	1.2 µg/mL (≈ 4.99 µM)	< 0.12 µg/mL	0.41 µg/mL (≈ 1.7 µM)	2.6 µg/mL (≈ 10.8 µM)	2.1
Cc1cccc2c1[n+]([O-])c(NC1CCC1)n[n+]2[O-]	0.31 µg/mL (≈ 1.26 µM)	0.47 µg/mL (≈ 1.91 µM)	0.43 µg/mL (≈ 1.75 µM)	22 µg/mL (≈ 89.3 µM)	70
COC(=O)/C=C/n1ccnc1[N+](=O)[O-]	10 µg/mL (≈ 50.7 µM)	29 µg/mL (≈ 147 µM)	3.3 µg/mL (≈ 16.7 µM)	16 µg/mL (≈ 81.2 µM)	1.6
NNC(=O)c1ccncc1 [ISONIAZID]	0.06 µg/mL (≈ 0.438 µM)	0.091 µg/mL (≈ 0.664 µM)	> 20 µg/mL	> 50 µg/mL	>830
COc1cc2c(cc1C)[n+]([O-])nc(NC1CCC1)[n+]2[O-]	2.5 µg/mL (≈ 9.05 µM)	5.1 µg/mL (≈ 18.5 µM)	2.9 µg/mL (≈ 10.5 µM)	> 50 µg/mL	>20
COc1ccc2c(c1)[n+]([O-])nc(N[C@@H]1C[C@H]3CC[C@@H]1C3)[n+]2[O-]	0.62 µg/mL (≈ 2.05 µM)	0.97 µg/mL (≈ 3.21 µM)	1.6 µg/mL (≈ 5.29 µM)	> 50 µg/mL	>80
O=C1CN(/N=C/c2ccc([N+](=O)[O-])o2)C(=O)N1 [NITROFURANTOIN]	16 µg/mL (≈ 67.2 µM)	28 µg/mL (≈ 118 µM)	32 µg/mL (≈ 134 µM)	23 µg/mL (≈ 96.6 µM)	1.1
COCCNC(=O)c1ccc2c(c1)[n+]([O-])c(C(C)=O)c(C)[n+]2[O-]	10 µg/mL (≈ 31.3 µM)	27 µg/mL (≈ 84.6 µM)	> 32 µg/mL	> 16 µg/mL	>1.6
CC(C)(C)C1CCC(Nc2n[n+]([O-])c3ccccc3[n+]2[O-])CC1 (stereo unspecified)	0.62 µg/mL (≈ 1.96 µM)	0.22 µg/mL (≈ 0.695 µM)	< 0.12 µg/mL	2.3 µg/mL (≈ 7.27 µM)	3.7

SMILES	MIC90 [1]	MIC90 [2]	MIC90 [3]	CC50 (Vero)	Selectivity Index [4]
CSc1c(C)[n+]([O-])c2ccccc2[n+]1[O-]	10 µg/mL (≈ 45 µM)	28 µg/mL (≈ 126 µM)	9.4 µg/mL (≈ 42.3 µM)	> 16 µg/mL	>1.6
COc1cc2c(cc1C)[n+]([O-])nc(N[C@@H]1C[C@H]3CC[C@@H]1C3)[n+]2[O-]	5 µg/mL (≈ 15.8 µM)	5.6 µg/mL (≈ 17.7 µM)	3.5 µg/mL (≈ 11.1 µM)	> 50 µg/mL	>10
[O-][n+]1nc(NC2CCCCC2)[n+]([O-])c2ccc(F)cc21	0.62 µg/mL (≈ 2.23 µM)	0.68 µg/mL (≈ 2.44 µM)	0.47 µg/mL (≈ 1.69 µM)	< 2.5 µg/mL	<4
CC(=O)Nc1cc(/C=C\c2ccc([N+](=O)[O-])o2)ns1	0.98 µg/mL (≈ 3.51 µM)	3.8 µg/mL (≈ 13.6 µM)	3.7 µg/mL (≈ 13.2 µM)	> 50 µg/mL	>50
[O-][n+]1nc(NC2CC2)[n+]([O-])c2ccc(Cl)cc21	0.62 µg/mL (≈ 2.45 µM)	0.21 µg/mL (≈ 0.831 µM)	0.22 µg/mL (≈ 0.871 µM)	1.3 µg/mL (≈ 5.15 µM)	2.2
[O-][n+]1nc(N2CCOCC2)[n+]([O-])c2ccccc21	2.5 µg/mL (≈ 10.1 µM)	3.7 µg/mL (≈ 14.9 µM)	19 µg/mL (≈ 76.5 µM)	5.4 µg/mL (≈ 21.8 µM)	2.2
[O-][n+]1nc(NC2CCC2)[n+]([O-])c2ccc(F)cc21	0.31 µg/mL (≈ 1.24 µM)	0.4 µg/mL (≈ 1.6 µM)	0.88 µg/mL (≈ 3.52 µM)	1.6 µg/mL (≈ 6.39 µM)	10
O=C(Cn1ccnc1[N+](=O)[O-])NCCO [ETANIDAZOLE]	> 10 µg/mL	> 32 µg/mL	26 µg/mL (≈ 121 µM)	> 16 µg/mL	–
CS(=O)(=O)N1CCN(c2n[n+]([O-])c3cc4c(cc3[n+]2[O-])CCC4)CC1	5 µg/mL (≈ 13.7 µM)	13 µg/mL (≈ 35.6 µM)	15 µg/mL (≈ 41 µM)	> 50 µg/mL	>10
Cc1cccc2c1[n+]([O-])c(NC1CCCC1)n[n+]2[O-]	0.31 µg/mL (≈ 1.19 µM)	0.43 µg/mL (≈ 1.65 µM)	0.27 µg/mL (≈ 1.04 µM)	3.7 µg/mL (≈ 14.2 µM)	12
[O-][n+]1nc(NC2CCCC2)[n+]([O-])c2ccc(Br)cc21	0.15 µg/mL (≈ 0.461 µM)	0.35 µg/mL (≈ 1.08 µM)	0.46 µg/mL (≈ 1.41 µM)	18 µg/mL (≈ 55.4 µM)	110
[O-][n+]1nc(N[C@@H]2C[C@H]3CC[C@@H]2C3)[n+]([O-])c2ccc(Br)cc21	0.31 µg/mL (≈ 0.883 µM)	0.36 µg/mL (≈ 1.03 µM)	0.41 µg/mL (≈ 1.17 µM)	0.8 µg/mL (≈ 2.28 µM)	2.6
[O-][n+]1nc(NC2CCCC2)[n+]([O-])c2ccccc21	2.5 µg/mL (≈ 10.2 µM)	3.6 µg/mL (≈ 14.6 µM)	0.68 µg/mL (≈ 2.76 µM)	10 µg/mL (≈ 40.6 µM)	4.2
[H][C@]12C[C@]3([H])C[C@]([H])(C1)[C@H](Nc1n[n+]([O-])c4ccccc4[n+]1[O-])[C@]([H])(C2)C3	2.5 µg/mL (≈ 8 µM)	1.9 µg/mL (≈ 6.08 µM)	2.3 µg/mL (≈ 7.36 µM)	7.3 µg/mL (≈ 23.4 µM)	2.9
Cc1c(N2CCCC2)[n+]([O-])c2ccccc2[n+]1[O-]	> 10 µg/mL	–	> 32 µg/mL	> 16 µg/mL	–
Cc1ncc([N+](=O)[O-])n1CCO [METRONIDAZOLE]	> 10 µg/mL	> 32 µg/mL	11 µg/mL (≈ 64.3 µM)	> 16 µg/mL	–
[O-][n+]1nc(NC2CCC2)[n+]([O-])c2ccc(Cl)cc21	0.15 µg/mL (≈ 0.562 µM)	–	< 0.12 µg/mL	1.6 µg/mL (≈ 6 µM)	10
[O-][n+]1nc(NC2CC2)[n+]([O-])c2ccccc21	2.5 µg/mL (≈ 11.5 µM)	–	1.8 µg/mL (≈ 8.25 µM)	21 µg/mL (≈ 96.2 µM)	8.3
